Literature values as cited in patent US20240350385A1 (priority 2023, published 2024).

Test system: patients
Conditions: in vivo

Compound: C=C(C#N)C(=O)OCCCC [n-Butyl cyanoacrylate]
- incidence of allergic contact dermatitis: 2.2%

Compound: 2-Octyl cyanoacrylate
- incidence of allergic contact dermatitis: 2.7%
